Laboratory results as given in ChEMBL document CHEMBL3885881, “DrugMatrix”.

Organism: Rattus norvegicus
Assay: DrugMatrix - Regimen: Daily Repeat
Assay type: toxicity, organism-based, Sprague-Dawley
Design: regimen Daily Repeat, gender Male, age 6-8 weeks
Settings: in vivo, po, route oral GAVAGE, vehicle .5 % CMC; for ABSOLUTE BASOPHIL / ABSOLUTE EOSINOPHIL / ABSOLUTE LYMPHOCYTE / ABSOLUTE MONOCYTE / ABSOLUTE SEGMENTED NEUTROPHIL / BASOPHIL / EOSINOPHIL / ERYTHROCYTE COUNT / HEMATOCRIT / HEMOGLOBIN / LEUKOCYTE COUNT / LYMPHOCYTE / MEAN CORPUSCULAR HEMOGLOBIN / MEAN CORPUSCULAR HEMOGLOBIN CONCENTRATION / MEAN CORPUSCULAR VOLUME / MONOCYTE / NEUTROPHIL / NUCLEATED RED BLOOD CELLS / PLATELET COUNT: tissue Blood; for ALANINE AMINOTRANSFERASE / ALBUMIN / ALKALINE PHOSPHATASE / ASPARTATE AMINOTRANSFERASE / BLOOD UREA NITROGEN / CARBON DIOXIDE / CHLORIDE / CHOLESTEROL / CREATINE PHOSPHOKINASE / CREATININE / GLUCOSE / LACTATE DEHYDROGENASE / LIPASE / PHOSPHORUS / POTASSIUM / SODIUM / TOTAL BILIRUBIN / TOTAL PROTEIN / URIC ACID: tissue Plasma
[1] = 0 mg/kg, 72 h, dose level Control, time 3 day
[2] = 0 mg/kg, 120 h, dose level Control, time 5 day
[3] = 100 mg/kg, 72 h, dose level Low, time 3 day

CO[C@H]1/C=C/O[C@@]2(C)Oc3c(C)c(O)c4c(c3C2=O)C2=NC3(CCN(CC(C)C)CC3)NC2=C(NC(=O)/C(C)=C\C=C\[C@H](C)[C@H](O)[C@@H](C)[C@@H](O)[C@@H](C)[C@H](OC(C)=O)[C@@H]1C)C4=O [RIFABUTIN]
ABSOLUTE BASOPHIL [1]: 0 CELLS/uL | ABSOLUTE EOSINOPHIL [1]: 0 CELLS/uL | ABSOLUTE LYMPHOCYTE [1]: 12269.67 CELLS/uL | ABSOLUTE MONOCYTE [1]: 160.33 CELLS/uL | ABSOLUTE SEGMENTED NEUTROPHIL [1]: 970 CELLS/uL | BASOPHIL [1]: 0% | EOSINOPHIL [1]: 0% | ERYTHROCYTE COUNT [1]: 5.76 x10E6/uL | HEMATOCRIT [1]: 36.57% | HEMOGLOBIN [1]: 14.22 G/DL | LEUKOCYTE COUNT [1]: 13.4 x10E3/uL | LYMPHOCYTE [1]: 91.67% | MEAN CORPUSCULAR HEMOGLOBIN [1]: 24.67 pg | MEAN CORPUSCULAR HEMOGLOBIN CONCENTRATION [1]: 38.85 G/DL | MEAN CORPUSCULAR VOLUME [1]: 63.52 fL | MONOCYTE [1]: 1.17% | NEUTROPHIL [1]: 7.17% | NUCLEATED RED BLOOD CELLS [1]: 0.33 /100WBC | PLATELET COUNT [1]: 1250.83 x10E3/uL | ALANINE AMINOTRANSFERASE [1]: 49.17 u/L | ALBUMIN [1]: 4.33 G/DL | ALKALINE PHOSPHATASE [1]: 378.5 u/L | ASPARTATE AMINOTRANSFERASE [1]: 82.17 u/L | BLOOD UREA NITROGEN [1]: 15 mg/dL | CARBON DIOXIDE [1]: 34.33 mmol/L | CHLORIDE [1]: 99.17 MEQ/L | CHOLESTEROL [1]: 71.17 mg/dL | CREATINE PHOSPHOKINASE [1]: 258.67 u/L | CREATININE [1]: 0.18 mg/dL | GLUCOSE [1]: 142.67 mg/dL | LACTATE DEHYDROGENASE [1]: 154.33 u/L | LIPASE [1]: 9 u/L | PHOSPHORUS [1]: 11.67 mg/dL | POTASSIUM [1]: 7.13 MEQ/L | SODIUM [1]: 142.22 MEQ/L | TOTAL BILIRUBIN [1]: 0.18 mg/dL | TOTAL PROTEIN [1]: 5.77 G/DL | URIC ACID [1]: 1.55 mg/dL | ABSOLUTE BASOPHIL [2]: 0 CELLS/uL | ABSOLUTE EOSINOPHIL [2]: 23.33 CELLS/uL | ABSOLUTE LYMPHOCYTE [2]: 14943.67 CELLS/uL | ABSOLUTE MONOCYTE [2]: 32 CELLS/uL | ABSOLUTE SEGMENTED NEUTROPHIL [2]: 1084.33 CELLS/uL | BASOPHIL [2]: 0% | EOSINOPHIL [2]: 0.17% | ERYTHROCYTE COUNT [2]: 5.71 x10E6/uL | HEMATOCRIT [2]: 35.28% | HEMOGLOBIN [2]: 14.27 G/DL | LEUKOCYTE COUNT [2]: 16.08 x10E3/uL | LYMPHOCYTE [2]: 93% | MEAN CORPUSCULAR HEMOGLOBIN [2]: 25.02 pg | MEAN CORPUSCULAR HEMOGLOBIN CONCENTRATION [2]: 40.43 G/DL | MEAN CORPUSCULAR VOLUME [2]: 61.82 fL | MONOCYTE [2]: 0.17% | NEUTROPHIL [2]: 6.67% | NUCLEATED RED BLOOD CELLS [2]: 0.33 /100WBC | PLATELET COUNT [2]: 1274 x10E3/uL | ALANINE AMINOTRANSFERASE [2]: 54.17 u/L | ALBUMIN [2]: 4.22 G/DL | ALKALINE PHOSPHATASE [2]: 373.17 u/L | ASPARTATE AMINOTRANSFERASE [2]: 81.83 u/L | BLOOD UREA NITROGEN [2]: 16.67 mg/dL | CARBON DIOXIDE [2]: 30.33 mmol/L | CHLORIDE [2]: 99 MEQ/L | CHOLESTEROL [2]: 71 mg/dL | CREATINE PHOSPHOKINASE [2]: 273.5 u/L | CREATININE [2]: 0.22 mg/dL | GLUCOSE [2]: 141.83 mg/dL | LACTATE DEHYDROGENASE [2]: 153.67 u/L | LIPASE [2]: 10.33 u/L | PHOSPHORUS [2]: 11.38 mg/dL | POTASSIUM [2]: 7.08 MEQ/L | SODIUM [2]: 142.75 MEQ/L | TOTAL BILIRUBIN [2]: 0.18 mg/dL | TOTAL PROTEIN [2]: 6.1 G/DL | URIC ACID [2]: 1.67 mg/dL | ABSOLUTE BASOPHIL [3]: 0 CELLS/uL | ABSOLUTE EOSINOPHIL [3]: 245.33 CELLS/uL | ABSOLUTE LYMPHOCYTE [3]: 18853.33 CELLS/uL | ABSOLUTE MONOCYTE [3]: 248 CELLS/uL | ABSOLUTE SEGMENTED NEUTROPHIL [3]: 1720 CELLS/uL | BASOPHIL [3]: 0% | EOSINOPHIL [3]: 1% | ERYTHROCYTE COUNT [3]: 5.43 x10E6/uL | HEMATOCRIT [3]: 36.1% | HEMOGLOBIN [3]: 14.33 G/DL | LEUKOCYTE COUNT [3]: 21.07 x10E3/uL | LYMPHOCYTE [3]: 89.33% | MEAN CORPUSCULAR HEMOGLOBIN [3]: 26.5 pg | MEAN CORPUSCULAR HEMOGLOBIN CONCENTRATION [3]: 39.7 G/DL | MEAN CORPUSCULAR VOLUME [3]: 66.67 fL | MONOCYTE [3]: 1.33% | NEUTROPHIL [3]: 8.33% | NUCLEATED RED BLOOD CELLS [3]: 0.67 /100WBC | PLATELET COUNT [3]: 1207.33 x10E3/uL | ALANINE AMINOTRANSFERASE [3]: 65.67 u/L | ALBUMIN [3]: 4.37 G/DL | ALKALINE PHOSPHATASE [3]: 375 u/L | ASPARTATE AMINOTRANSFERASE [3]: 96.33 u/L | BLOOD UREA NITROGEN [3]: 13 mg/dL | CARBON DIOXIDE [3]: 25.67 mmol/L | CHLORIDE [3]: 103 MEQ/L | CHOLESTEROL [3]: 84.33 mg/dL | CREATINE PHOSPHOKINASE [3]: 380 u/L | CREATININE [3]: 0.35 mg/dL | GLUCOSE [3]: 158 mg/dL | LACTATE DEHYDROGENASE [3]: 212.67 u/L | LIPASE [3]: 10.67 u/L | PHOSPHORUS [3]: 12.8 mg/dL | POTASSIUM [3]: 6.31 MEQ/L | SODIUM [3]: 145.97 MEQ/L | TOTAL BILIRUBIN [3]: 0.23 mg/dL | TOTAL PROTEIN [3]: 6.1 G/DL | URIC ACID [3]: 1.97 mg/dL
